Entries after “also recorded” stand apart in the source; their conditions may differ.
Legend:
PI3Kα (p110α/p85α) = target: T1, PI3Kα (p110α/p85α) (Homo sapiens, UniProt P42336); experiment: HTRF assay, potency against active PI3Kα; type: biochemical; details: HTRF; [ATP]=50 μM, [di-C8-PIP2]=10 μM; 30 min pre-incubation; read-out: PI3Kα Inhibition
T1 construct: purchased BPS Bioscience (San Diego, Calif.) or Millipore (Billerica, Mass.)
How it was run: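 Active p110/p85α lipid kinase reactions were started with ATP and run 30-60 minutes at 25 °C, then stopped and developed with HTRF detection mix. HTRF ratio converted to % inhibition against ±enzyme controls; IC50 from log[inhibitor] vs response, variable slope.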

PI3Kβ (p110β/p85α) = target: T2, PI3Kβ (p110β/p85α) (Homo sapiens, UniProt P42338); experiment: HTRF assay, potency against active PI3Kβ; type: biochemical; details: [ATP]=50 μM, [di-C8-PIP2]=10 μM, 30 min pre-incubation, read-out: PI3Kβ Inhibition
T2 construct: purchased BPS Bioscience (San Diego, Calif.) or Millipore (Billerica, Mass.)
T2 sequence (P42338 whole entry): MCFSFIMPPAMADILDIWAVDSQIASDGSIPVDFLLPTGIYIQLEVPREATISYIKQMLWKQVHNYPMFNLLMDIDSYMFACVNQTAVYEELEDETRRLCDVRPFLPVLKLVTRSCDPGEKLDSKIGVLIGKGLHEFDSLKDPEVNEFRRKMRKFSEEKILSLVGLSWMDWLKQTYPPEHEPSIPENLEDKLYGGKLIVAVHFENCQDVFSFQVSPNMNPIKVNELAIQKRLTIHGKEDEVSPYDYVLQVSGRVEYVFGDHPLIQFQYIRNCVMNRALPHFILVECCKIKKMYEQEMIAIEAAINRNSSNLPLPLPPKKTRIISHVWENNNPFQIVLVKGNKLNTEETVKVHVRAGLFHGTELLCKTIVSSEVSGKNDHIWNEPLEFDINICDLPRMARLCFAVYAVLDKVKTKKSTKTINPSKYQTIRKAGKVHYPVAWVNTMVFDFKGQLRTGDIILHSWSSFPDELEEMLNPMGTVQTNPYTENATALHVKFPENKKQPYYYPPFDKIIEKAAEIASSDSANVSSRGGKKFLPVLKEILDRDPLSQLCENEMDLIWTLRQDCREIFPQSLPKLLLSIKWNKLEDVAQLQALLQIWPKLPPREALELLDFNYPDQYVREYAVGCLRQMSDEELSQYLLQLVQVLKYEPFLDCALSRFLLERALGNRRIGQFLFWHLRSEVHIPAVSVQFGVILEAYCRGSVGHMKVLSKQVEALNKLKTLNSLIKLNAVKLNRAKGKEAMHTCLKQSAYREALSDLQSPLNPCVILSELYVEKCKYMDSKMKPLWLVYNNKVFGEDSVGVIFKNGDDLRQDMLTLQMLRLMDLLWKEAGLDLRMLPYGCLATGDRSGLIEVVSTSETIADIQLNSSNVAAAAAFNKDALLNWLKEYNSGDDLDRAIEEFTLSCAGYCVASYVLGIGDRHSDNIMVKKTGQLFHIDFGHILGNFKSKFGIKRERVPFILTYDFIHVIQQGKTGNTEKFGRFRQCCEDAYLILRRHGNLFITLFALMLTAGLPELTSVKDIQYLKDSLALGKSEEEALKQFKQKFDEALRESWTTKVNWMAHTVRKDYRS
T2 sequence (P27986 whole entry partner): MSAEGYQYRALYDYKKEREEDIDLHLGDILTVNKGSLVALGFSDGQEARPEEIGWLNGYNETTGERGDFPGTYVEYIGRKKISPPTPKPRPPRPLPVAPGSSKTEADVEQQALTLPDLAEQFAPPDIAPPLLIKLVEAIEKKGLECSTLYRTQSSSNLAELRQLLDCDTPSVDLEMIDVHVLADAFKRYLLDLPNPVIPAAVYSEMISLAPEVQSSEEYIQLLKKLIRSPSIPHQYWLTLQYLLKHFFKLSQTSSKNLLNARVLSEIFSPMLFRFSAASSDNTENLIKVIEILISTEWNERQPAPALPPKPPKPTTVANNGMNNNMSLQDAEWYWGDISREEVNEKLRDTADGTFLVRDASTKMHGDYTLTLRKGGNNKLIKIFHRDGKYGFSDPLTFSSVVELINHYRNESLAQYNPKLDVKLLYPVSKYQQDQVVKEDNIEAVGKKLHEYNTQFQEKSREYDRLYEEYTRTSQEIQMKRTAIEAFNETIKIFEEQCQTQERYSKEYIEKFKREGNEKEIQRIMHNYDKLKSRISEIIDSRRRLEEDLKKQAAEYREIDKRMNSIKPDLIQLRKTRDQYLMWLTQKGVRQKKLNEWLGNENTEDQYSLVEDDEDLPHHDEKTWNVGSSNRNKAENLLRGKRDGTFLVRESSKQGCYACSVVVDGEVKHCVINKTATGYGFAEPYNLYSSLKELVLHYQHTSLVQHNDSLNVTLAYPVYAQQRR
Method: Homogeneous Time Resolved Fluorescence (HTRF) Assay Protocol for Potency Assessment Against the Active Forms of PI3Kα, PI3Kβ, and PI3Kγ
The mechanics of the assay platform are best described by the vendor (Millipore, Billerica, Mass.) on their website at the following URL: www.millipore.com/coa/tech1/74jt4z.
Briefly, Stop solution (Stop A, #33-007 and Stop B, #33-009; 3:1 ratio) and Detection Mix (from DMC, #33-015 with DMA, #33-011 and DMB, #33-013; 18:1:1 ratio) were prepared as recommended by the manufacturer about 2 hrs prior to use. […] Lipid kinase reactions were started with the addition of 5 μL of ATP solution, mixed for 15 sec on a rotary plate shaker and incubated for 30-60 minutes at 25° C. Next, reactions were stopped with a 5 μL addition of Stop solution immediately followed by a 5 μL volume of Detection Mix. […] At the conclusion of each assay, the HTRF ratio from fluorescence emission values for each well was calculated and % Inhibition determined from averaged controls wells (+/−PI3K enzyme). % Inhibition values for each compound were then plotted against inhibitor concentration to estimate IC50 from log [Inhibitor] vs Response, Variable Slope model in GraphPad Prism from GraphPad Software (San Diego, Calif.).

Phospho-Akt(Ser473) = experiment: Dose response in SKOV3 cells as determined by in-cell Western; type: cell-based; details: Homo sapiens, SK-OV-3; SKOV3 cells, 1 hr; read-out: pAKT Inhibition in cell Western
How it was run: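 SKOV3 cells treated with compound for 1 hr, then formaldehyde-fixed, permeabilised and stained overnight for phospho-Akt(Ser473) with anti-tubulin as a reference. Infrared secondary antibodies read at 680 and 800 nm channels by in-cell Western imaging.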

SKOV3 cells = experiment: GI50 determinations in SKOV3 cells; type: cell-based; details: Homo sapiens, SK-OV-3; SKOV3 cells, 96 hours, Cell Titer Glo
PI3Kα [1] = target: T3, PI3Kα (Homo sapiens, UniProt P42336); experiment: Mass spectrometry of intact PI3Kα (Millipore, 14-602), 1 hr incubation; type: binding; parameters: purchased Millipore 14-602; details: 10× fold excess of compound, MALDI
T3 sequence (P42336 whole entry): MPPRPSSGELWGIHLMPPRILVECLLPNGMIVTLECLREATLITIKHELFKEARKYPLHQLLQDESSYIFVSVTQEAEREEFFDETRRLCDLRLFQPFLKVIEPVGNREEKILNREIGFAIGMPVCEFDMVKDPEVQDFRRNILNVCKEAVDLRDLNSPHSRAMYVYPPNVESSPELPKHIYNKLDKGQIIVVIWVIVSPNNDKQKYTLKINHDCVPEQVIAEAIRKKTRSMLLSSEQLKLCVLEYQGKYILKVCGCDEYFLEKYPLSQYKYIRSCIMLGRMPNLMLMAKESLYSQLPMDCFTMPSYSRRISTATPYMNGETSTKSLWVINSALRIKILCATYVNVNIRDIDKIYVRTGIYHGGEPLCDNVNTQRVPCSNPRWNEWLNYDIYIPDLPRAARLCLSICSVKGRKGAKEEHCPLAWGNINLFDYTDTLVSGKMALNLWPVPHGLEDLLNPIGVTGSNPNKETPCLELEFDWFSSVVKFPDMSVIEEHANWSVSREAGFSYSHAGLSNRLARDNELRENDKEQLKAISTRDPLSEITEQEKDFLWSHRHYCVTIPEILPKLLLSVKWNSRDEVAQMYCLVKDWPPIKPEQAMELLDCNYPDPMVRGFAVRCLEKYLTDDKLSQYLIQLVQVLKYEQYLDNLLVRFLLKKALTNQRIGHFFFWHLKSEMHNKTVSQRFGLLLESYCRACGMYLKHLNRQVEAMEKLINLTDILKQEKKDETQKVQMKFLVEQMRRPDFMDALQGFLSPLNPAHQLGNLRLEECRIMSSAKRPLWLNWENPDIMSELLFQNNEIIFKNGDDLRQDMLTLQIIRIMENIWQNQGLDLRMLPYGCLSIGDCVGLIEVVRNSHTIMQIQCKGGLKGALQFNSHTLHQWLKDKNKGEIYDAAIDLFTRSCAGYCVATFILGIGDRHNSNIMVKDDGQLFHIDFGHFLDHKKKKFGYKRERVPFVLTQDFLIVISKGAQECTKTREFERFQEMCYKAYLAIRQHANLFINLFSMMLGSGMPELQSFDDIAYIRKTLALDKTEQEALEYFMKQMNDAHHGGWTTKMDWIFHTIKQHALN
T3 sequence (P27986 whole entry partner): as the sequence (P27986 whole entry partner) above
Method: Mass Spectrometry for PI3K
Aliquots (5 μl) of the samples were diluted with 15 μl of 0.2% TFA prior to micro C4 ZipTipping directly onto the MALDI target using Sinapinic acid as the desorption matrix (10 mg/ml in 0.1% TFA:Acetonitrile 50:50).

PI3Kα [2] = target: T3, PI3Kα; experiment: Trypsin digest and MS-MS analysis of compound-treated PI3Kα; type: binding; parameters: purchased Millipore 14-602; details: in-gel trypsin digest
Method: (§1) The PI3Kα protein band was then excised and subjected to an in-gel trypsin digest by reducing the protein with DTT, alkylating the thiols with iodoacetamide, and then incubating the protein gel band with trypsin overnight in a 37° C. water bath. The digest was then stopped by addition of trifluoroacetic acid, and peptides were removed from gel band by sonicating with increasing amounts of acetonitrile (0%, 30%, & 60%). Peptides were then purified using C18 ziptips, spotted on the MALDI target plate with α-cyano-4-hydroxycinnamic acid as the desorption matrix (10 mg/ml in 0.1% TFA:Acetonitrile 50:50), and analyzed in reflectron mode.
as §1, with “trifluoro acetic” for “trifluoroacetic”

PI3K = PI3K HCT116 cellular assay (Western blot); type: cell-based; details: Homo sapiens, HCT-116, HCT116 colon cancer cells, 1 hour incubation, read-out: PI3K Inhibition
Method: PI3K HCT116 Cellular Assay
Selected compounds were assayed in HCT116 colon cancer cells. […] Cells were then washed with PBS, lysed and the protein lysates were then recovered and analyzed by Western blot.

HCT116 cells = experiment: HCT-116 cell proliferation assay; type: cell-based; details: Homo sapiens, 72 hours, Cell Titer Glo
Method: HCT-116 Cell Proliferation Assay
(§2) For the HCT116 Proliferation Assay, 3000 cells per well were plated in Growth Media (DMEM, 10% FBS, 1% 1-glutamine, 1% penicillin/streptomycin) in 96 well plates. The following day, compounds were added to duplicate wells at concentrations of 10 uM and 3-fold dilutions down to 40 nM. The plates were returned to the incubator for 72 hours and then the assays were developed using Cell Titer Glo (Promega, Madison, Wis.) according to manufacturer's instructions.

SK-OV-3 cells = experiment: SK-OV-3 cell proliferation assay; type: cell-based; details: Homo sapiens; SK-OV-3 proliferation, 72 hours, Cell Titer Glo
Method: SK-OV-3 Cell Proliferation Assay
as §2, with “SK-OV-3 proliferation” for “HCT116 Proliferation”, “5000” for “3000”

SKOV-3 tumors = experiment: Tumor growth inhibition in vivo; details: nude mice, subcutaneous SKOV-3 tumors; GDC-941 orally, II-a-3 I.P., 50-100 mg/Kg/QD, 21 days
Method: Tumor Growth Inhibition In Vivo
The in vivo experiment was performed at Piedmont Research Center (Research Triangle Park, N.C.). Nude mice were implanted with SKOV-3 tumors subcutaneously. […] Dosing continued for 21 days. Tumor volume was measured twice a week.

p110alpha = p110alpha (Homo sapiens, UniProt P42336); experiment: In vitro occupancy in SKOV-3 cells with covalent probe; type: cell-based; details: covalent probe XIV-a-3 or XIV-a-4
p110alpha, sequence (P42336 whole entry): as the sequence (P42336 whole entry) above

PI3 kinase = experiment: Comparison of covalent and non-covalent inhibitors (Tables 18 and 19): prolonged PD, mechanism; details: Table 19
Method: “A” designates ≦10 nM; “B” designates 10-100 nM; and “C” designates 100-1000 nM

T1 sequence (P42336 whole entry): as above
T1 sequence (P27986 whole entry partner): as the sequence (P27986 whole entry partner) above

Row | IC50 (PI3Kα (p110α/p85α)) [µM] | IC50 (PI3Kβ (p110β/p85α)) [µM] | EC50 (Phospho-Akt(Ser473)) [µM] | GI50 (SKOV3 cells) [µM] | mass shift of PI3Kα (PI3Kα [1]) [Da] | mass shift of PI3Kα, per cent in brackets (PI3Kα [1]) [%] | SMILES | covalent modification of PI3Kα (PI3Kα [1]) | site on PI3Kα that is covalently modified (PI3Kα [2]) | EC50 (PI3K) [µM] | EC50 (HCT116 cells) [µM] | EC50 (SK-OV-3 cells) [µM] | tumor growth (SKOV-3 tumors) | target occupancy (competition with the covalent probe) (p110alpha) | Prolonged PD (PI3 kinase)
1 | 0.1 to 1 | 0.1 to 1 | 0.1 to 1 | 0.1 to 1 | 575 | 97 | C=CC(=O)Nc1ccc(C(=O)N2CC=C(c3cc4nc(-c5cccc6[nH]ncc56)nc(N5CCOCC5)c4s3)CC2)cc1 [II-a-144, N-(4-(4-(2-(1H-indazol-4-yl)-4-morpholinothieno[3,2-d]pyrimidin-6-yl)-1,2,3,6-tetrahydropyridine-1-carbonyl)phenyl)acrylamide] | complete modification; also recorded: covalent modification | Cys-862; also recorded: peptide ^853NSHTIMQIQCK^863 | – | – | – | – | – | –
2 | – | – | – | – | – | – | CS(=O)(=O)N1CCN(Cc2cc3nc(-c4cccc5[nH]ncc45)nc(N4CCOCC4)c3s2)CC1 [GDC-941, reference compound] | – | – | […] | […] | […] | Inhibition of tumor growth | does not compete with the covalent probe | No
